Patent US20170008921A1, “C-3 NOVEL TRITERPENONE WITH C-28 REVERSE AMIDE DERIVATIVES AS HIV INHIBITORS” (HETERO RESEARCH FOUNDATION, priority 2015, published 2017)
Structures can show the parent of a compound that is named as a salt. Where two headings read alike, the source gives them in different places.

Assay: Cyto-toxicity (MTT assay)
Type: cell-based
Description: On day 1 calculate the number of cells required for the assay and seed 3×10^4 cells in 200 μl per well. Weigh the compound and dissolve it in DMSO to get 10 mM stock which is further diluted to 3 mM and 1 mM. […] Add DMSO to controls in a way to obtain final concentration of solvent that is not greater than 1%. Incubate for 4 days in 5% CO2 incubator at 37° C. On day 4, 100 μl of medium was removed from each well without disturbing the cells. Add 10 μl of MTT reagent and incubate for 4 hours at 5% CO2 incubator at 37° C. for formation of crystals. Add 200 μl of 0.1N acidic isopropanol to dissolve the crystals and read the plate at 590 nm. The values are mentioned in below Table-3 and Table-3A.

[1] = 0.01 μM, MTT, 4 days (Table 3), read-out: Cytotoxicity % viability
[2] = 0.1 μM, MTT, 4 days (Table 3), read-out: Cytotoxicity % viability
[3] = 1 μM, MTT, 4 days (Table 3), read-out: Cytotoxicity % viability

CC(C)C1=C2[C@H]3CC[C@@H]4[C@@]5(C)CC[C@H](OC(=O)[C@H]6C[C@@H](C(=O)O)C6(C)C)C(C)(C)[C@@H]5CC[C@@]4(C)[C@]3(C)CC[C@@]2(NC(=O)C(C)(C)NS(C)(=O)=O)CC1=O [Example 63, sodium (1R,3S)-3-((((3aR,5aR,5bR,7aR,9S,11aR,11bR,13aS)-1-isopropyl-5a,5b,8,8,11a-pentamethyl-3a-(2-methyl-2-(methylsulfonamido)propanamido)-2-oxo-3,3a,4,5,5a,5b,6,7,7a,8,9,10,11,11a,11b,12,13,13a-octadecahydro-2H-cyclopenta[a]chrysen-9-yl)oxy)carbonyl)-2,2-dimethylcyclobutane-1-carboxylate]
viability at 4 days, 0.01 µM: 51% | viability at 4 days, 0.1 µM: 16% | viability at 4 days, 1 µM: 0%

CC(C)C1=C2[C@H]3CC[C@@H]4[C@@]5(C)CC[C@H](OC(=O)[C@H]6C[C@@H](C(=O)O)C6(C)C)C(C)(C)[C@@H]5CC[C@@]4(C)[C@]3(C)CC[C@@]2(NC(=O)C(C)(C)NC(=O)C(C)(C)N)CC1=O [Example 11, (1R,3S)-3-((((3aR,5aR,5bR,7aR,9S,11aR,11bR,13aS)-3a-(2-(2-amino-2-methylpropanamido)-2-methylpropanamido)-1-isopropyl-5a,5b,8,8,11a-pentamethyl-2-oxo-3,3a,4,5,5a,5b,6,7,7a,8,9,10,11,11a,11b,12,13,13a-octadecahydro-2H-cyclopenta[a]chrysen-9-yl)oxy)carbonyl)-2,2-dimethylcyclobutane-1-carboxylic acid hydrochloride]
viability at 4 days, 0.01 µM: 41% | viability at 4 days, 0.1 µM: 3% | viability at 4 days, 1 µM: 1%

CC(C)C1=C2[C@H]3CC[C@@H]4[C@@]5(C)CC[C@H](OC(=O)[C@H]6C[C@@H](C(=O)O)C6(C)C)C(C)(C)[C@@H]5CC[C@@]4(C)[C@]3(C)CC[C@@]2(NC(=O)C(C)(C)NC(=O)[C@@H](N)C(C)C)CC1=O [Example 36, (1R,3S)-3-((((3aR,5aR,5bR,7aR,9S,11aR,11bR,13aS)-3a-(2-((S)-2-amino-3-methylbutanamido)-2-methylpropanamido)-1-isopropyl-5a,5b,8,8,11a-pentamethyl-2-oxo-3,3a,4,5,5a,5b,6,7,7a,8,9,10,11,11a,11b,12,13,13a-octadecahydro-2H-cyclopenta[a]chrysen-9-yl)oxy)carbonyl)-2,2-dimethylcyclobutane-1-carboxylic acid hydrochloride]
viability at 4 days, 0.01 µM [1]: 56% | viability at 4 days, 0.1 µM [2]: 15% | viability at 4 days, 1 µM [3]: 8%

CC(C)C1=C2[C@H]3CC[C@@H]4[C@@]5(C)CC[C@H](OC(=O)[C@H]6C[C@@H](C(=O)O)C6(C)C)C(C)(C)[C@@H]5CC[C@@]4(C)[C@]3(C)CC[C@@]2(NC(=O)C(C)(C)NC(=O)c2ccco2)CC1=O [Example 26, (1R,3S)-3-((((3aR,5aR,5bR,7aR,9S,11aR,11bR,13aS)-3a-(2-(furan-2-carboxamido)-2-methylpropanamido)-1-isopropyl-5a,5b,8,8,11a-pentamethyl-2-oxo-3,3a,4,5,5a,5b,6,7,7a,8,9,10,11,11a,11b,12,13,13a-octadecahydro-2H-cyclopenta[a]chrysen-9-yl)oxy)carbonyl)-2,2-dimethylcyclobutane-1-carboxylic acid]
viability at 4 days, 0.01 µM: 55% | viability at 4 days, 0.1 µM: 20% | viability at 4 days, 1 µM: 0%

CC(C)C1=C2[C@H]3CC[C@@H]4[C@@]5(C)CC[C@H](OC(=O)[C@H]6C[C@@H](C(=O)O)C6(C)C)C(C)(C)[C@@H]5CC[C@@]4(C)[C@]3(C)CC[C@@]2(NC(=O)C(C)(C)NCCN(C)C)CC1=O [Example 73, (1R,3S)-3-((((3aR,5aR,5bR,7aR,9S,11aR,11bR,13aS)-3a-(2-((2-(dimethylamino)ethyl)amino)-2-methylpropanamido)-1-isopropyl-5a,5b,8,8,11a-pentamethyl-2-oxo-3,3a,4,5,5a,5b,6,7,7a,8,9,10,11,11a,11b,12,13,13a-octadecahydro-2H-cyclopenta[a]chrysen-9-yl)oxy)carbonyl)-2,2-dimethylcyclobutane-1-carboxylic acid]
viability at 4 days, 0.01 µM: 52% | viability at 4 days, 0.1 µM: 11% | viability at 4 days, 1 µM: 9%

CCN1CCN(CC(=O)NC(C)(C)C(=O)N[C@@]23CC[C@]4(C)[C@H](CC[C@@H]5[C@@]6(C)CC[C@H](OC(=O)[C@H]7C[C@@H](C(=O)O)C7(C)C)C(C)(C)[C@@H]6CC[C@]54C)C2=C(C(C)C)C(=O)C3)CC1 [Example 9, (1R,3S)-3-((((3aR,5aR,5bR,7aR,9S,11aR,11bR,13aS)-3a-(2-(2-(4-ethylpiperazin-1-yl)acetamido)-2-methylpropanamido)-1-isopropyl-5a,5b,8,8,11a-pentamethyl-2-oxo-3,3a,4,5,5a,5b,6,7,7a,8,9,10,11,11a,11b,12,13,13a-octadecahydro-2H-cyclopenta[a]chrysen-9-yl)oxy)carbonyl)-2,2-dimethylcyclobutane-1-carboxylic acid]
viability at 4 days, 0.01 µM: 100% | viability at 4 days, 0.1 µM: 53% | viability at 4 days, 1 µM: 14%

CC(C)C1=C2[C@H]3CC[C@@H]4[C@@]5(C)CC[C@H](OC(=O)[C@H]6C[C@@H](C(=O)O)C6(C)C)C(C)(C)[C@@H]5CC[C@@]4(C)[C@]3(C)CC[C@@]2(NC(=O)C2(NC(=O)c3ccc(F)cc3)CC2)CC1=O [Example 39, (1R,3S)-3-((((3aR,5aR,5bR,7aR,9S,11aR,11bR,13aS)-3a-(1-(4-fluorobenzamido)cyclopropane-1-carboxamido)-1-isopropyl-5a,5b,8,8,11a-pentamethyl-2-oxo-3,3a,4,5,5a,5b,6,7,7a,8,9,10,11,11a,11b,12,13,13a-octadecahydro-2H-cyclopenta[a]chrysen-9-yl)oxy)carbonyl)-2,2-dimethylcyclobutane-1-carboxylic acid]
viability at 4 days, 0.01 µM: 29% | viability at 4 days, 0.1 µM: 2% | viability at 4 days, 1 µM: 0%

CC(C)C1=C2[C@H]3CC[C@@H]4[C@@]5(C)CC[C@H](OC(=O)[C@H]6C[C@@H](C(=O)O)C6(C)C)C(C)(C)[C@@H]5CC[C@@]4(C)[C@]3(C)CC[C@@]2(NC(=O)C(C)(C)NCC2(c3ccc(Cl)cc3)CC2)CC1=O [Example 69, (1R,3S)-3-((((3aR,5aR,5bR,7aR,9S,11aR,11bR,13aS)-3a-(2-(((1-(4-chlorophenyl)cyclopropyl)methyl)amino)-2-methylpropanamido)-1-isopropyl-5a,5b,8,8, 11a-pentamethyl-2-oxo-3,3a,4,5,5a,5b,6,7,7a,8,9,10,11,11a,11b,12,13,13a-octadecahydro-2H-cyclopenta[a]chrysen-9-yl)oxy)carbonyl)-2,2-dimethylcyclobutane-1-carboxylic acid]
viability at 4 days, 0.01 µM: 42% | viability at 4 days, 0.1 µM: 8% | viability at 4 days, 1 µM: 8%

CC(C)C1=C2[C@H]3CC[C@@H]4[C@@]5(C)CC[C@H](OC(=O)[C@H]6C[C@@H](C(=O)O)C6(C)C)C(C)(C)[C@@H]5CC[C@@]4(C)[C@]3(C)CC[C@@]2(NC(=O)C(C)(C)NC(=O)c2ccc(Cl)cc2)CC1=O [Example 1, (1R,3S)-3-((((3aR,5aR,5bR,7aR,9S,11aR,11bR,13aS)-3a-(2-(4-chlorobenzamido)-2-methylpropanamido)-1-isopropyl-5a,5b,8,8,11a-pentamethyl-2-oxo-3,3a,4,5,5a,5b,6,7,7a,8,9,10,11,11a,11b,12,13,13a-octadecahydro-2H-cyclopenta[a]chrysen-9-yl)oxy)carbonyl)-2,2-dimethylcyclobutane-1-carboxylic acid]
viability at 4 days, 0.01 µM: 57% | viability at 4 days, 0.1 µM: 10% | viability at 4 days, 1 µM: 4%

CC(C)C1=C2[C@H]3CC[C@@H]4[C@@]5(C)CC[C@H](OC(=O)[C@H]6C[C@@H](C(=O)O)C6(C)C)C(C)(C)[C@@H]5CC[C@@]4(C)[C@]3(C)CC[C@@]2(NC(=O)C(C)(C)NC(=O)C2CCNCC2)CC1=O [Example 35, (1R,3S)-3-((((3aR,5aR,5bR,7aR,9S,11aR,11bR,13aS)-1-isopropyl-5a,5b,8,8,11a-pentamethyl-3a-(2-methyl-2-(piperidine-4-carboxamido)propanamido)-2-oxo-3,3a,4,5,5a,5b,6,7,7a,8,9,10,11,11a,11b,12,13,13a-octadecahydro-2H-cyclopenta[a]chrysen-9-yl)oxy)carbonyl)-2,2-dimethylcyclobutane-1-carboxylic acid hydrochloride]
viability at 4 days, 0.01 µM [1]: 84% | viability at 4 days, 0.1 µM [2]: 92% | viability at 4 days, 1 µM [3]: 77%

Cc1cccnc1C(=O)NC(C)(C)C(=O)N[C@@]12CC[C@]3(C)[C@H](CC[C@@H]4[C@@]5(C)CC[C@H](OC(=O)[C@H]6C[C@@H](C(=O)O)C6(C)C)C(C)(C)[C@@H]5CC[C@]43C)C1=C(C(C)C)C(=O)C2 [Example 29, (1R,3S)-3-((((3aR,5aR,5bR,7aR,9S,11aR,11bR,13aS)-1-isopropyl-5a,5b,8,8,11a-pentamethyl-3a-(2-methyl-2-(3-methylpicolinamido)propanamido)-2-oxo-3,3a,4,5,5a,5b,6,7,7a,8,9,10,11,11a,11b,12,13,13a-octadecahydro-2H-cyclopenta[a]chrysen-9-yl)oxy)carbonyl)-2,2-dimethylcyclobutane-1-carboxylic acid]
viability at 4 days, 0.01 µM: 29% | viability at 4 days, 0.1 µM: 3% | viability at 4 days, 1 µM: 2%
